Assay results as given in the NIST ThermoML archive (doi:10.1016/j.jct.2013.02.013).
Numbers after ± are expanded uncertainties.

Key:
[1] = Crystal; DTA
[2] = Molar enthalpy of transition or fusion; conditions: Crystal; DSC

O=C(O)C=Cc1ccc(O)cc1 [3-(4-hydroxyphenyl)-2-propenoic acid]
Normal melting temperature [1]: 219.20 ± 1 °C
Molar enthalpy of transition or fusion [2]: 27.4 ± 4 kJ/mol
